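GI50 marks 50% less growth. TGI is the concentration that stops growth completely.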
Key:
Experiment in all cases: NCI tumour cell line growth inhibition, 384-well format
786-0 renal = test system: 786-0 renal
ACHN renal = test system: ACHN renal
BT-549 breast = test system: BT-549 breast
CAKI-1 renal = test system: CAKI-1 renal
CCRF-CEM leukemia = test system: CCRF-CEM leukemia
COLO 205 colon = test system: COLO 205 colon
EKVX NSCLC = test system: EKVX NSCLC
HCC-2998 colon = test system: HCC-2998 colon
HCT-116 colon = test system: HCT-116 colon
HL-60(TB) leukemia = test system: HL-60(TB) leukemia
HOP-62 NSCLC = test system: HOP-62 NSCLC
HOP-92 NSCLC = test system: HOP-92 NSCLC
HS 578T breast = test system: HS 578T breast
HT29 colon = test system: HT29 colon
IGROV1 ovarian = test system: IGROV1 ovarian
K-562 leukemia = test system: K-562 leukemia
KM12 colon = test system: KM12 colon
LOX IMVI melanoma = test system: LOX IMVI melanoma
M14 melanoma = test system: M14 melanoma
MCF7 breast = test system: MCF7 breast
MDA-MB-231 breast = test system: MDA-MB-231 breast
MDA-MB-435 melanoma = test system: MDA-MB-435 melanoma
MDA-MB-468 breast = test system: MDA-MB-468 breast
NCI-H322M lung = test system: NCI-H322M lung
NCI-H460 NSCLC = test system: NCI-H460 NSCLC
NCI-H522 lung = test system: NCI-H522 lung
OVCAR-4 ovarian = test system: OVCAR-4 ovarian
OVCAR-5 ovarian = test system: OVCAR-5 ovarian
OVCAR-8 ovarian = test system: OVCAR-8 ovarian
RPMI-8226 leukemia = test system: RPMI-8226 leukemia
RXF 393 renal = test system: RXF 393 renal
SF-268 CNS = test system: SF-268 CNS
SF-295 CNS = test system: SF-295 CNS
SF-539 CNS = test system: SF-539 CNS
SK-MEL-2 melanoma = test system: SK-MEL-2 melanoma
SK-MEL-28 melanoma = test system: SK-MEL-28 melanoma
SK-MEL-5 melanoma = test system: SK-MEL-5 melanoma
SN12C renal = test system: SN12C renal
SNB-19 CNS = test system: SNB-19 CNS
SNB-75 CNS = test system: SNB-75 CNS
SW-620 colon = test system: SW-620 colon
T-47D breast = test system: T-47D breast
TK-10 renal = test system: TK-10 renal
U251 glioblastoma = test system: U251 glioblastoma
UACC-257 melanoma = test system: UACC-257 melanoma
UACC-62 melanoma = test system: UACC-62 melanoma
UO-31 renal = test system: UO-31 renal

CNCc1ccc(-c2[nH]c3cc(F)cc4c3c2CCNC4=O)cc1
GI50 ([…]-0 renal): 7.97 µM | TGI (786-0 renal): 21.3 µM | GI50 (ACHN renal): 11.5 µM | TGI (ACHN renal): 28.6 µM | GI50 (BT-549 breast): 11.8 µM | TGI (BT-549 breast): 24.2 µM | GI50 (CAKI-1 renal): 7.56 µM | TGI (CAKI-1 renal): 19.8 µM | GI50 (CCRF-CEM leukemia): 3.68 µM | TGI (CCRF-CEM leukemia): 13.1 µM | GI50 (COLO 205 colon): 9.97 µM | TGI (COLO 205 colon): 23.1 µM | GI50 (EKVX NSCLC): 16.1 µM | TGI (EKVX NSCLC): 30.9 µM | GI50 (HCC-2998 colon): 11.3 µM | TGI (HCC-2998 colon): 23.8 µM | GI50 (HCT-116 colon): 6.6 µM | TGI (HCT-116 colon): 19.4 µM | GI50 (HL-60(TB) leukemia): 8.28 µM | TGI (HL-60(TB) leukemia): 19.1 µM | GI50 (HOP-62 NSCLC): 9.39 µM | TGI (HOP-62 NSCLC): 23.4 µM | GI50 (HOP-92 NSCLC): 12.9 µM | TGI (HOP-92 NSCLC): 27.9 µM | GI50 (HS 578T breast): 10.4 µM | TGI (HS 578T breast): 22.4 µM | GI50 (HT29 colon): 10 µM | TGI (HT29 colon): 23.4 µM | GI50 (IGROV1 ovarian): 10.4 µM | TGI (IGROV1 ovarian): 25.4 µM | GI50 (K-562 leukemia): 7.92 µM | TGI (K-562 leukemia): 20.1 µM | GI50 (KM12 colon): 15.7 µM | TGI (KM12 colon): 30.2 µM | GI50 (LOX IMVI melanoma): 13 µM | TGI (LOX IMVI melanoma): 26 µM | GI50 (M14 melanoma): 14.7 µM | TGI (M14 melanoma): 28 µM | GI50 (MCF7 breast): 6.36 µM | TGI (MCF7 breast): 18.7 µM | GI50 (MDA-MB-231 breast): 8.58 µM | TGI (MDA-MB-231 breast): 21.8 µM | GI50 (MDA-MB-435 melanoma): 19 µM | TGI (MDA-MB-435 melanoma): 34.2 µM | GI50 (MDA-MB-468 breast): 4.13 µM | TGI (MDA-MB-468 breast): 11.5 µM | GI50 (NCI-H322M lung): 17.2 µM | TGI (NCI-H322M lung): 32.4 µM | GI50 (NCI-H460 NSCLC): 6.31 µM | TGI (NCI-H460 NSCLC): 19.6 µM | GI50 (NCI-H522 lung): 15.6 µM | TGI (NCI-H522 lung): 29.3 µM | GI50 (OVCAR-4 ovarian): 21 µM | TGI (OVCAR-4 ovarian): 38.2 µM | GI50 (OVCAR-5 ovarian): 15.8 µM | TGI (OVCAR-5 ovarian): 38.9 µM | GI50 (OVCAR-8 ovarian): 10.4 µM | TGI (OVCAR-8 ovarian): 23.7 µM | GI50 (RPMI-8226 leukemia): 8.37 µM | TGI (RPMI-8226 leukemia): 21.6 µM | GI50 (RXF 393 renal): 10.6 µM | TGI (RXF 393 renal): 23.8 µM | GI50 (SF-268 CNS): 14.1 µM | TGI (SF-268 CNS): 29.1 µM | GI50 (SF-295 CNS): 8.3 µM | TGI (SF-295 CNS): 22.4 µM | GI50 (SF-539 CNS): 12.4 µM | TGI (SF-539 CNS): 25.1 µM | GI50 (SK-MEL-2 melanoma): 11.9 µM | TGI (SK-MEL-2 melanoma): 24.3 µM | GI50 (SK-MEL-28 melanoma): 15.2 µM | TGI (SK-MEL-28 melanoma): 28.8 µM | GI50 (SK-MEL-5 melanoma): 6.05 µM | TGI (SK-MEL-5 melanoma): 12.1 µM | GI50 (SN12C renal): 14.9 µM | TGI (SN12C renal): 31 µM | GI50 (SNB-19 CNS): 19 µM | TGI (SNB-19 CNS): > 48.4 µM | GI50 (SNB-75 CNS): 13.2 µM | TGI (SNB-75 CNS): 26.4 µM | GI50 (SW-620 colon): 7.46 µM | TGI (SW-620 colon): 23.6 µM | GI50 (T-47D breast): 16.9 µM | TGI (T-47D breast): 36.9 µM | GI50 (TK-10 renal): 18.8 µM | TGI (TK-10 renal): 46.5 µM | GI50 (U251 glioblastoma): 14.4 µM | TGI (U251 glioblastoma): 32.5 µM | GI50 (UACC-257 melanoma): 12.8 µM | TGI (UACC-257 melanoma): 26.4 µM | GI50 (UACC-62 melanoma): 12.4 µM | TGI (UACC-62 melanoma): 25 µM | GI50 (UO-31 renal): 12.1 µM | TGI (UO-31 renal): 28.5 µM
